In ChEMBL document CHEMBL3272295, “Drugs derived from cannabinoids. 5. delta6a,10a-Tetrahydrocannabinol and heterocyclic analogs containing aromatic side chains” (J Med Chem, 1976):

Tests used:
Mus musculus [1] = experiment: Analgesic activity in po dosed mouse assessed as inhibition of acetic acid-induced writhing administered 30 mins prior to acetic acid challenge measured after 5 mins for 20 mins; format: functional
Rattus norvegicus [2] = experiment: (§1) Antidiarrheal activity in Charles River rat assessed as inhibition of castor oil-induced diarrhea by measuring protected animals at 0.1 mg/kg, po administered 1 hr prior to castor oil challenge measured after 1 hr relative to vehicle-treated control; format: functional
Rattus norvegicus [3] = experiment: Antihypertensive activity in spontaneously hypertensive rat model assessed as reduction in blood pressure at 1 mg/kg, po after 3 hrs; format: functional; design: scale not given: the % may be the effect or the level left
[4] = Acute toxicity in po dosed mouse; format: organism-based; conditions: in vivo
Rattus norvegicus [5] = experiment: Antisecretory activity in Sprague-Dawley rat assessed as decrease in acid output at 50 mg/kg, po administered 30 mins prior to pylorus ligation measured after 4 hrs relative to control; format: functional; design: scale not given: the % may be the effect or the level left
Rattus norvegicus [6] = experiment: Antisecretory activity in Sprague-Dawley rat assessed as decrease in volume at 50 mg/kg, po administered 30 mins prior to pylorus ligation measured after 4 hrs relative to control; format: functional; design: scale not given: the % may be the effect or the level left
Rattus norvegicus [7] = experiment: as §1, with “0.5” for “0.1”, “po administered for 5 days followed by 0.5 mg/kg, po on test day” for “po”; format: functional
Mus musculus [8] = experiment: Antianxiety activity in albino BALB/cJ mouse assessed as reduction in footshock-induced fighting behavior at 5 mg/kg, po after 30 to 90 mins; format: functional; design: scale not given: the % may be the effect or the level left
Rattus norvegicus [9] = experiment: Antihypertensive activity in spontaneously hypertensive rat model assessed as reduction in blood pressure at 1 mg/kg, po after 24 hrs; format: functional; design: scale not given: the % may be the effect or the level left
Rattus norvegicus [10] = experiment: Antidiarrheal activity in Charles River rat assessed as inhibition of castor oil-induced diarrhea by measuring protected animals at 0.05 mg/kg, po administered 1 hr prior to castor oil challenge measured after 1 hr relative to vehicle-treated control; format: functional
Rattus norvegicus [11] = experiment: Antipsychotic activity in rat assessed as reduction of methamphetamine-induced hyperactivity at 0.5 mg/kg, po administered prior to methamphetamine challenge relative to vehicle-treated control; format: functional; design: scale not given: the % may be the effect or the level left
Rattus norvegicus [12] = experiment: Antidiarrheal activity in Charles River rat assessed as inhibition of castor oil-induced diarrhea by measuring protected animals at 0.2 mg/kg, po administered 1 hr prior to castor oil challenge measured after 1 hr relative to vehicle-treated control; format: functional
Rattus norvegicus [13] = experiment: Antianxiety activity in Long-Evans rat assessed as reduction in motor activity at 5 mg/kg, po after 2 hrs relative to vehicle-treated control; format: functional; design: scale not given: the % may be the effect or the level left
Rattus norvegicus [14] = experiment: Antipsychotic activity in rat assessed as reduction of methamphetamine-induced hyperactivity at 2 mg/kg, po administered prior to methamphetamine challenge relative to vehicle-treated control; format: functional; design: scale not given: the % may be the effect or the level left
Rattus norvegicus [15] = experiment: as §1, with “0.5” for “0.1”, “po administered for 2 days followed by 0.5 mg/kg, po on test day” for “po”; format: functional
Rattus norvegicus [16] = experiment: Antipsychotic activity in rat assessed as reduction of methamphetamine-induced hyperactivity at 5 mg/kg, po administered prior to methamphetamine challenge relative to vehicle-treated control; format: functional; design: scale not given: the % may be the effect or the level left
Rattus norvegicus [17] = experiment: Antisecretory activity in Sprague-Dawley rat assessed as decrease in acidity at 50 mg/kg, po administered 30 mins prior to pylorus ligation measured after 4 hrs relative to control; format: functional; design: scale not given: the % may be the effect or the level left
Rattus norvegicus [18] = experiment: Antisecretory activity in Sprague-Dawley rat assessed as decrease in pepsin concentration at 50 mg/kg, po administered 30 mins prior to pylorus ligation measured after 4 hrs relative to control; format: functional; design: scale not given: the % may be the effect or the level left
Rattus norvegicus [19] = experiment: Antihypertensive activity in spontaneously hypertensive rat model assessed as reduction in blood pressure at 0.3 mg/kg, po after 3 hrs; format: functional; design: scale not given: the % may be the effect or the level left
Canis familiaris = experiment: Antianxiety activity in po dosed dog assessed as ataxia administered as single dose measured up to 24 hrs; format: functional; conditions: Canis lupus familiaris, read-out: MED
Rattus norvegicus [20] = experiment: as §1, with “0.5” for “0.1”, “po administered for 2 days followed by 1 mg/kg, po on test day” for “po”; format: functional
Rattus norvegicus [21] = experiment: Antihypertensive activity in spontaneously hypertensive rat model assessed as reduction in blood pressure at 0.3 mg/kg, po after 24 hrs; format: functional; design: scale not given: the % may be the effect or the level left
Rattus norvegicus [22] = experiment: Antisecretory activity in Sprague-Dawley rat assessed as decrease in pepsin output at 50 mg/kg, po administered 30 mins prior to pylorus ligation measured after 4 hrs relative to control; format: functional; design: scale not given: the % may be the effect or the level left
Rattus norvegicus [23] = experiment: Antianxiety activity in Long-Evans rat assessed as reduction in motor activity at 1 mg/kg, po after 2 hrs relative to vehicle-treated control; format: functional; design: scale not given: the % may be the effect or the level left
Felis catus [24] = experiment: Hypnotic activity in cat assessed as increase in total sleep time at 0.5 mg/kg administered orally through diet measured for 12 hrs by EEG analysis; format: functional; conditions: route oral
Rattus norvegicus [25] = experiment: Antihypertensive activity in spontaneously hypertensive rat model assessed as reduction in blood pressure at 5 mg/kg, po after 3 hrs; format: functional; design: scale not given: the % may be the effect or the level left
Rattus norvegicus [26] = experiment: Antihypertensive activity in spontaneously hypertensive rat model assessed as reduction in blood pressure at 5 mg/kg, po after 24 hrs; format: functional; design: scale not given: the % may be the effect or the level left
Rattus norvegicus [27] = experiment: Antidiarrheal activity in Charles River rat assessed as inhibition of castor oil-induced diarrhea by measuring protected animals at 0.4 mg/kg, po administered 1 hr prior to castor oil challenge measured after 1 hr relative to vehicle-treated control; format: functional
Mus musculus [28] = experiment: Antianxiety activity in albino BALB/cJ mouse assessed as reduction in footshock-induced fighting behavior at 10 mg/kg, po after 30 to 90 mins; format: functional; design: scale not given: the % may be the effect or the level left
Rhesus monkey = experiment: Antianxiety activity in po dosed rhesus monkey assessed as antiagressive behavior measured every hour post dosing; format: functional; conditions: Macaca mulatta, read-out: MED
Rattus norvegicus [29] = experiment: Analgesic activity in po dosed Sprague-Dawley rat after 15 to 90 mins by tail flick test; format: functional
Rattus norvegicus [30] = experiment: Antianxiety activity in Long-Evans rat assessed as reduction in motor activity at 10 mg/kg, po after 2 hrs relative to vehicle-treated control; format: functional; design: scale not given: the % may be the effect or the level left
Felis catus [31] = experiment: Hypnotic activity in cat assessed as increase in non-REM sleep time at 0.5 mg/kg administered orally through diet measured for 12 hrs by EEG analysis; format: functional; conditions: route oral
Rattus norvegicus [32] = experiment: Antidiarrheal activity in Charles River rat assessed as inhibition of castor oil-induced diarrhea by measuring protected animals at 0.8 mg/kg, po administered 1 hr prior to castor oil challenge measured after 1 hr relative to vehicle-treated control; format: functional
Rattus norvegicus [33] = experiment: Antipsychotic activity in rat assessed as reduction of methamphetamine-induced hyperactivity at 2.5 mg/kg, po administered prior to methamphetamine challenge relative to vehicle-treated control; format: functional; design: scale not given: the % may be the effect or the level left
Rattus norvegicus [34] = species: Rattus norvegicus; experiment: animal or person; format: functional; conditions: Charles River, route oral
Description: Antidiarrheal activity in Charles River rat assessed as inhibition of castor oil-induced diarrhea by measuring protected animals at 0.5 mg/kg, po administered 1 hr prior to castor oil challenge measured after 1 hr relative to vehicle-treated control

Mus musculus [35] = experiment: Increase in footshock-induced fighting behavior in albino BALB/cJ mouse at 10 mg/kg, po after 30 to 90 mins; format: functional
Felis catus [36] = experiment: Hypnotic activity in cat assessed as decrease in total sleep time at 0.5 mg/kg administered orally through diet measured for 12 hrs by EEG analysis; format: functional; conditions: route oral
Mus musculus [37] = experiment: Antianxiety activity in albino BALB/cJ mouse assessed as reduction in footshock-induced fighting behavior at 1 mg/kg, po after 30 to 90 mins; format: functional; design: scale not given: the % may be the effect or the level left
Felis catus [38] = experiment: Hypnotic activity in cat assessed as increase in non-REM sleep time at 2 mg/kg administered orally through diet measured for 12 hrs by EEG analysis; format: functional; conditions: route oral
Mus musculus [39] = experiment: Anticonvulsant activity in po dosed mouse assessed as dose required to protect 80% of animal measured after 1 to 4 hrs by audiogenic seizure test; format: functional
Felis catus [40] = experiment: Hypnotic activity in cat assessed as increase in total sleep time at 2 mg/kg administered orally through diet measured for 12 hrs by EEG analysis; format: functional; conditions: route oral
Mus musculus [41] = experiment: Antidepressant activity in po dosed mouse assessed as potentiation of DOPA-induced effect administered 4 hrs prior to DOPA challenge; format: functional; conditions: read-out: MED
Felis catus [42] = experiment: Hypnotic activity in cat assessed as decrease in non-REM sleep time at 0.5 mg/kg administered orally through diet measured for 12 hrs by EEG analysis; format: functional; conditions: route oral

Structure (SMILES) | ED50 (Mus musculus [1]) [mg/kg] | inhibition in vivo at 0.1 mg/kg (Rattus norvegicus [2]) [%] | LD50 [4] [mg/kg] | Activity (Rattus norvegicus [5]) [%] | Activity (Rattus norvegicus [6]) [%] | Activity (Mus musculus [8]) [%] | inhibition in vivo at 0.05 mg/kg (Rattus norvegicus [10]) [%] | Activity (Rattus norvegicus [11]) [%] | Activity (Rattus norvegicus [13]) [%] | Activity (Rattus norvegicus [14]) [%] | inhibition in vivo at 0.5 mg/kg (Rattus norvegicus [15]) [%] | Activity (Rattus norvegicus [16]) [%] | Activity (Rattus norvegicus [17]) [%] | Activity (Rattus norvegicus [18]) [%] | Activity (Rattus norvegicus [19]) [%] | minimal effective dose (Canis familiaris) [mg/kg] | inhibition (INH) (Rattus norvegicus [20]) [%] | Activity (Rattus norvegicus [21]) [%] | Activity (Rattus norvegicus [22]) [%] | minimal effective dose (Rhesus monkey) [mg/kg] | also measured
CC1CCC2=C(C1)c1c(O)cc(C(C)C(C)CCc3ccc(F)cc3)cc1OC2(C)C (stereo not given) | 4.5 | 60 | 750 | 53.1 | 45.6 | 0 | 40 | 58 | 66 | 62 | 0.5 | 89 | 13.4 | 20.8 | 13 | 1 | 0 | 10 | 56.4 | – | Activity (Rattus norvegicus [3]): 27%; inhibition in vivo at 0.5 mg/kg (Rattus norvegicus [7]): 0%; Activity (Rattus norvegicus [9]): 12%; inhibition in vivo at 0.2 mg/kg (Rattus norvegicus [12]): 90%
CC1CCC2=C(C1)c1c(OC(=O)CCCN3CCCCC3)cc(C(C)CCCc3ccc(F)cc3)cc1OC2(C)C.Cl (stereo not given) | 1.76 | 10 | ≥ 1000 | – | – | – | – | – | 72 | – | – | 75 | – | – | – | 0.2 | – | – | – | 1 | Activity (Rattus norvegicus [23]): 38%; Time (Felis catus [24]): 50 min; Activity (Rattus norvegicus [25]): 25%; Activity (Rattus norvegicus [26]): 19%; inhibition in vivo at 0.4 mg/kg (Rattus norvegicus [27]): 70%; Activity (Mus musculus [28]): 73%; ED50 (Rattus norvegicus [29]): 1.46 mg/kg; Activity (Rattus norvegicus [30]): 95%; Time (Felis catus [31]): 73 min; inhibition in vivo at 0.8 mg/kg (Rattus norvegicus [32]): 90%; Activity (Rattus norvegicus [33]): 50%
CC1CCC2=C(C1)c1c(O)cc(C(C)CCCc3ccc(F)cc3)cc1OC2(C)C (stereo not given) | 8.3 | 50 | ≥ 1000 | 39.6 | 35.5 | 92 | 0 | 30 | 90 | 70 | 0 | – | 7.8 | 11.4 | 31 | 0.5 | 0 | 12 | 43.7 | 0.1 | inhibition in vivo at 0.5 mg/kg (Rattus norvegicus [34]): 70%; Activity (Mus musculus [35]): 26%; Time (Felis catus [36]): -22 min; Activity (Mus musculus [37]): 60%; Time (Felis catus [38]): 94 min; ED50 (Rattus norvegicus [29]): 5.9 mg/kg; Activity (Mus musculus [39]): 30 mg/kg; Time (Felis catus [40]): 126 min; minimal effective dose (Mus musculus [41]): 10 mg/kg; Time (Felis catus [42]): -4 min
